Assay results published in ChEMBL document CHEMBL4680113, “Tigliane Diterpenoids as a New Type of Antiadipogenic Agents Inhibit GRα-Dexras1 Axis in Adipocytes” (J Med Chem, 2019).
Active and inactive are the calls of the source. No cut-off for these calls is given here.

Key:
[1] = tested on: HEK293; test: Toxicity in HEK293 cells assessed as reduction in cell viability at 10 uM incubated for 6 days by MTT assay; assay type: cell-based; conditions: human, hek293, 144 h, time 6 day
[2] = tested on: 3T3-L1; test: Inhibition of methylprednisolone-induced PPARgamma mRNA expression in mouse 3T3-L1 cells at 1 uM by RT-qPCR analysis; assay type: functional, cell-based
[3] = tested on: 3T3-L1; test: Inhibition of adipogenic cocktail-induced GR-alpha nuclear translocation in mouse 3T3-L1 cells at 1 uM after 8 hrs by Western blot analysis; assay type: cell-based
[4] = tested on: 3T3-L1; test: Inhibition of GR-alpha in mouse 3T3-L1 cells assessed as reduction in methylprednisolone-induced Dexras1 mRNA expression at 1 uM incubated for 4 hrs by RT-qPCR analysis; assay type: cell-based
[5] = tested on: 3T3-L1; test: Inhibition of adipogenic cocktail-induced FAS protein expression in mouse 3T3-L1 cells incubated for 6 days by Western blot analysis; assay type: functional, cell-based; conditions: time 6.0 day
[6] = tested on: 3T3-L1; test: Inhibition of adipogenic cocktail-induced C/EBPdelta mRNA expression in mouse 3T3-L1 cells incubated for 24 hrs by RT-qPCR analysis; assay type: functional, cell-based
[7] = tested on: 3T3-L1; test: Inhibition of adipogenic cocktail-induced C/EBPbeta protein expression in mouse 3T3-L1 cells incubated for 24 hrs by Western blot analysis; assay type: functional, cell-based
[8] = tested on: 3T3-L1; test: Inhibition of adipogenic cocktail-induced PPARgamma protein expression in mouse 3T3-L1 cells incubated for 24 hrs by Western blot analysis; assay type: functional, cell-based
[9] = tested on: 3T3-L1; test: Inhibition of GR-alpha in mouse 3T3-L1 cells assessed as reduction in adipogenic cocktail-induced Dexras1 mRNA expression incubated for 0.5 to 24 hrs by RT-qPCR analysis; assay type: cell-based; conditions: time 0.5-24 hrs
[10] = tested on: 3T3-L1; test: Lipid lowering activity in mouse 3T3-L1 cells assessed as reduction in methylprednisolone-induced triglyceride levels at 1 uM incubated for 6 days by GPO-POD assay; assay type: functional, cell-based; conditions: time 6.0 day
[11] = tested on: 3T3-L1; test: Inhibition of GR-alpha in mouse 3T3-L1 cells assessed as reduction in adipogenic cocktail-induced Dexras1 mRNA expression at 1 uM incubated for 4 hrs by RT-qPCR analysis; assay type: cell-based
[12] = tested on: HepG2; test: Lipid lowering activity in human HepG2 cells assessed as reduction in high-glucose induced triglyceride levels at 1 uM incubated for 6 days in presence of Dexras1 siRNA by GPO-POD assay; assay type: functional, cell-based; conditions: time 6.0 day
[13] = tested on: 3T3-L1; test: Inhibition of adipogenic cocktail-induced ACC mRNA expression in mouse 3T3-L1 cells at 1 uM after 6 days in presence of GR-alpha siRNA by RT-qPCR analysis; assay type: functional, cell-based; conditions: time 6.0 day
[14] = tested on: 3T3-L1; test: Inhibition of cell differentiation in mouse 3T3-L1 cells assessed as reduction in adipogenic cocktail-induced triglyceride levels at 1 uM incubated for 0 to 9 days by Oil-Red O staining; assay type: functional, cell-based; conditions: time 0-9 day
[15] = tested on: 3T3-L1; test: Inhibition of cell differentiation in mouse 3T3-L1 cells assessed as reduction in adipogenic cocktail-induced triglyceride levels at 1 uM incubated for 0 to 9 days by GPO-POD assay; assay type: functional, cell-based; conditions: time 0-9 day
[16] = tested on: 3T3-L1; test: Inhibition of adipogenic cocktail-induced PPARgamma mRNA expression in mouse 3T3-L1 cells at 1 uM after 1 day in presence of GR-alpha siRNA by RT-qPCR analysis; assay type: functional, cell-based
[17] = tested on: 3T3-L1; test: Inhibition of adipogenic cocktail-induced ACC protein expression in mouse 3T3-L1 cells incubated for 6 days by Western blot analysis; assay type: functional, cell-based; conditions: time 6.0 day

CC(=O)O[C@@H]1C(C)=C[C@H]2[C@@H]3C(C)(C)[C@]3(OC(=O)C(C)C)[C@H](OC(=O)c3ccccc3)[C@@H](C)[C@]2(O)[C@@H]2C=C(C)C(=O)[C@@H]12
Activity [1]: Non-Toxic
inhibition [2]: Active
inhibition [3]: Active
inhibition [4]: Active
inhibition [5]: Dose-dependent effect
inhibition [6]: Dose-dependent effect
inhibition [7]: Dose-dependent effect
inhibition [8]: Dose-dependent effect
inhibition [9]: Dose-dependent effect
inhibition [10]: Active
inhibition [11]: Active
inhibition [12]: Active
inhibition [13]: Active
inhibition [14]: inactive
inhibition [15]: inactive
inhibition [16]: Active
inhibition [17]: Dose-dependent effect

CC1=C[C@@H]2[C@@H](C1=O)[C@H](O)C(C)=C[C@H]1[C@@H]3C(C)(C)[C@]3(OC(=O)C(C)C)[C@H](OC(=O)c3ccccc3)[C@@H](C)[C@]21O
Activity [1]: Non-Toxic
inhibition [3]: Active
inhibition [5]: Dose-dependent effect
inhibition [6]: Dose-dependent effect
inhibition [7]: Dose-dependent effect
inhibition [8]: Dose-dependent effect
inhibition [9]: Dose-dependent effect
inhibition [13]: Active
inhibition [14]: inactive
inhibition [15]: inactive
inhibition [16]: Active
inhibition [17]: Dose-dependent effect
